The nature of data set [1]: Minimum HLB needed for cetosome formation. Conditions: surfactant HLB requirement to solubilize and stabilize within the cetosome. The format is physicochemical. Here is the method: Core components are also chosen with melting points between 40° to 75° C. This allows for thermal dissociation into the oil phase and strong affinity re-association as the temperature is reduced.

Data set [2] in a line: Pre-clinical pharmacokinetic feasibility study of oxybutynin cream on shaved rabbit backs. The format is in vivo, rabbits. Here is the method: Two levels of oxybutynin hydrochloride for use in the study were incorporated into the composition matrix: 5 mg/gm and 0.5 mg/ml. Three rabbits were chosen for each dosing. Animal backs were shaved were shaved 24 hrs prior to application. One gram was applied to the shaved area and rubbed in. This was covered by non-absorbent dressing. One milliliter of blood was collected from a marginal ear vein at baseline, 15 minutes, 1 hr, 6 hrs, 12 hrs and 24 hrs following dosing. Heparin was used as anticoagulant. Extracted samples were analyzed using an LC/MS-MS spectrometer (API 3000) with diazepam as an internal standard. Mobile phase was a 50:40:10 mixture (methanol:acetonitrile: 10 mM ammonium formate). The column used was a Phenomenex, Luna C18, 150×4.6 mm, 5 micron. Temperature for analysis was 30° C. with a flow rate of 1.0 ml/min with splitter with detection using ESI positive ion. Both oxybutynin and N-desethyl-oxybutynin were analyzed. N-desethyl-oxybutynin (DES) is a metabolite of oxybutynin considered to be associated with adverse secondary side effects.

Where [3] appears, read: rabbit, in vivo, topical or ocular, 5 mg.
Where [4] appears, read: Cream, 0.5 mg/ml, one gram topical, rabbit plasma, mean.

Some results are limits rather than exact numbers.

For the compound `CCCCCCCCCCCCCCCCO` [Cetyl Alcohol], the “MINIMUM HLB NEEDED FOR CETOSOME FORMATION” value in data set [1] was 15.5.

What is called melting point is the temperature of the solid-liquid transition. `CCCCCCCCCCCCCCCCOC(=O)CCCCCCCCC` [Cetyl Decanoate] gave a melting point of 40 to 44 °C. Besides, in data set [1], the “MINIMUM HLB NEEDED FOR CETOSOME FORMATION” value is listed as 10. On the same counts, the results for `CCCCCCCCCCCCCCCCOC(=O)CCCCCCCCCCC` [Cetyl Laurate] are 43 to 45 °C and 10. On the same counts, the results for `CCCCCCCCCCCCCCCCOC(=O)CCCCCCCCCCCCC` [Cetyl Myristate] are 45 to 48 °C and 10. On the same counts, the results for `CCCCCCCCCCCCCCCCOC(=O)CCCCCCC` [Cetyl Octanoate] are 52 to 60 °C and 10. Compound `CCCCCCCC/C=C\CCCCCCCC(=O)OCCCCCCCCCCCCCCCC` [Cetyl Oleate] gave a melting point of 58 to 60 °C. The “MINIMUM HLB NEEDED FOR CETOSOME FORMATION” value in data set [1] was 10. For `CCCCCCCCCCCCCCCCOC(=O)CCCCCCCCCCCCCCC` [Cetyl Palmitate], in data set [1], the “MINIMUM HLB NEEDED FOR CETOSOME FORMATION” value was determined as 10. As for `CCCCCC/C=C\CCCCCCCC(=O)OCCCCCCCCCCCCCCCC` [Cetyl Palmitoleate], the melting point was 45 to 52 °C. In addition, the “MINIMUM HLB NEEDED FOR CETOSOME FORMATION” value in data set [1] stood at 10. `CCCCCCCCCCCCCCCCCC(=O)OCCCCCCCCCCCCCCCC` [Cetyl Stearate]: the melting point was in the range of 62 to 70 °C. Besides, the “MINIMUM HLB NEEDED FOR CETOSOME FORMATION” value in data set [1] was 10. As a reminder, the Tmax is the time at which the peak concentration occurs. For `CCNCC#CCOC(=O)C(O)(c1ccccc1)C1CCCCC1` (stereo not shown) [DES, N-desethyl-oxybutynin], the “detection of the metabolite in plasma during the 24 hour period” value in data set [2] (either level of dose application) is given as “not detectable”. In addition, the Tmax in data set [2] (rabbit, in vivo, topical or ocular) is below 0.5 h. By AUC(0-t) is commonly meant the area under the concentration-time curve up to a stated or last time point. Read a low AUC(0-t) as less exposure. The term Cmax denotes the maximum level reached in the sampled fluid or tissue. For the compound `CCN(CC)CC#CCOC(=O)C(O)(c1ccccc1)C1CCCCC1` (stereo not shown) [Oxybutynin, oxybutynin], in data set [2] (setting [3]), the AUC(0-t) came to 22 ng·h/mL, the peak level (Cmax) was 9.33 ng/mL and the Tmax turned out to be 6 h.

As to Cetyl Isomyristate, the “MINIMUM HLB NEEDED FOR CETOSOME FORMATION” value in data set [1] came to 10. Take oxybutynin: in data set [2] (setting [4]), the “AUC 0-24 hr” value was determined as 2.512 ng·h/mL, the Cmax is 0.836 ng/mL and the Tmax is 12 h.
